The values below come from ChEMBL document CHEMBL4184098, “Discovery of novel benzo[b]thiophene tetrazoles as non-carboxylate GPR40 agonists” (Bioorg Med Chem Lett, 2018).

Data set [1] is described as follows: Oral bioavailability in rat at 10 mg/kg. It counts as ADME, organism-based. As to conditions: in vivo.
Data set [2] can be described thus: Volume of distribution at steady state in rat at 10 mg/kg, po or 2 mg/kg, iv. It is filed as ADME, organism-based. As to conditions: in vivo, read-out: Vdss.
Data set [3] can be described thus: Cmax in rat at 10 mg/kg, po. It is filed as ADME, organism-based. Set-up: dose 10 mg/kg, route oral. As to conditions: in vivo.
Data set [4] can be described thus: Plasma concentration in Sprague-Dawley rat at 10 mg/kg, po administered 40 mins prior to glucose-challenge measured at 160 mins post last dose during OGTT assay. It is filed as ADME, organism-based.
Data set [5] can be described thus: Retention time of compound by LC-MS/MS analysis. It counts as physicochemical.
A short description of data set [6]: Plasma concentration in Sprague-Dawley rat at 1 mg/kg, po administered 40 mins prior to glucose-challenge measured at 160 mins post last dose during OGTT assay. It counts as ADME, organism-based.
The nature of data set [7]: Plasma concentration in Sprague-Dawley rat at 10 mg/kg, po administered 40 mins prior to glucose-challenge measured at 95 mins post last dose during OGTT assay. It counts as ADME, organism-based.
Data set [8] in a line: Plasma concentration in Sprague-Dawley rat at 10 mg/kg, po administered 40 mins prior to glucose-challenge measured at 35 mins post last dose during OGTT assay. It counts as ADME, organism-based.
Data set [9] in a line: Plasma concentration in Sprague-Dawley rat at 10 mg/kg, po administered 40 mins prior to glucose-challenge measured at 155 mins post last dose during OGTT assay. It is filed as ADME, organism-based.

SMILES strings stand for the structures.

Regarding `CC#C[C@@H](Cc1nnn[nH]1)c1ccc(OCc2ccc3scc(-c4ccc(OCCCS(C)(=O)=O)cc4C)c3c2)cc1`, the bioavailability in data set [1] came to 56.8%. Also, the Vd in data set [2] is 5.1 L/kg. In data set [3], the highest level (Cmax) was 417 ng/mL.
With `CC#C[C@@H](Cc1nnn[nH]1)c1ccc(OCc2ccc3scc(-c4ccccc4C)c3c2)cc1`, the bioavailability in [1] worked out at 43.2%. Also, the Vd in [2] is 1.5 L/kg. The same compound displayed a Cmax in [3] of 576 ng/mL. In addition, the figures for the concentration at 160 min in [4] and in data set [6] were 1.85 µM and 0.32 µM, respectively. The Retention_time in data set [5] came out at 26.64 min.
In data set [7], `CC#C[C@@H](Cc1nnn[nH]1)c1ccc(OCc2ccc3sc(C(F)(F)F)c(-c4ccc(OCCOC)cc4C)c3c2)cc1` displayed a concentration at 95 min of 3.9 µM. In [8], this compound gave a concentration at 35 min of 5.66 µM. Further, in data set [9], the concentration at 155 min amounted to 4.41 µM.
In data set [1], `CC#C[C@@H](Cc1nnn[nH]1)c1ccc(OCc2ccc3scc(-c4ccc(OCC5(C)CS(=O)(=O)C5)cc4C)c3c2)cc1` gave a bioavailability of 50.3%. Moreover, in data set [2], the Vd was 5.9 L/kg. The compound also returned a peak concentration (Cmax) in data set [3] of 356 ng/mL.
`CC#C[C@@H](Cc1nnn[nH]1)c1ccc(OCc2ccc3sc(F)c(-c4ccccc4C)c3c2)cc1`: the bioavailability in data set [1] was 62.3%. Moreover, in data set [2], the Vd was found to be 2.2 L/kg. In addition, the peak level in [3] (Cmax) was 1590 ng/mL. The compound also had a concentration at 160 min in [4] of 3.74 µM.
In the same order, the values of `CC#C[C@@H](Cc1nnn[nH]1)c1ccc(OCc2ccc3sc(Cl)c(-c4ccccc4C)c3c2)cc1` are 72%, 0.8 L/kg, 4220 ng/mL and 8.09 µM.
On the same counts, the results for `CC#C[C@@H](Cc1nnn[nH]1)c1ccc(OCc2ccc3sc(C(F)(F)F)c(-c4ccccc4C)c3c2)cc1` are 82.1%, 1.1 L/kg, 2520 ng/mL and 7.42 µM.
